# According to patent US8546380B2, “Aminodihydrothiazine derivatives” (Shionogi & Co., Ltd., priority 2005, dated 2013):
# pIC50: −log10 of the molar value.
# Target: recombinant human BACE-1 protein (Homo sapiens (Human), UniProt P56817)
# Test: Measurement of Inhibition of β-Secretase Activity
# Type: biochemical
# Conditions: fluorescence-quenched peptide substrate 18 nM, BACE-1 7.4 nM, 3 h at 30° C., pH5.0; read-out: IC50 value
# Description: Zero point five μL of the test compounds (dissolved in N,N′-dimethylsulfoxide) were incubated with 48.5 μL of the fluorescence-quenched peptide substrate solution (Biotin-XSEVNLDAEFRHDSGC-Eu:X=ε-amino-n-capronic acid, Eu=Europium cryptate) and 1 μL of recombinant human BACE-1 protein (R&D systems) for 3 h at 30° C. in the 96 well half-area plate (black color plate, Costar). The substrate peptide was synthesized by reacting with Biotin-XSEVNLDAEFRHDSGC (Peptide Institute) and Cryptate TBPCOOH mono SMP (CIS bio international). […] The enzymatic reaction was performed in sodium acetate buffer (50 mM sodium acetate (pH5.0), 0.008% Triton X-100). After the reaction, a 50 μL of 8.0 μg/mL Streptavidin-XL665 (CIS bio international) dissolved in phosphate buffer (150 mM K2HPO4—KH2PO4 (pH 7.0), 0.008% Triton X-100, 0.8 M KF) was add to each well and incubated for 1 h at 30° C.
# Chain of recombinant human BACE-1 protein (P56817 46-501): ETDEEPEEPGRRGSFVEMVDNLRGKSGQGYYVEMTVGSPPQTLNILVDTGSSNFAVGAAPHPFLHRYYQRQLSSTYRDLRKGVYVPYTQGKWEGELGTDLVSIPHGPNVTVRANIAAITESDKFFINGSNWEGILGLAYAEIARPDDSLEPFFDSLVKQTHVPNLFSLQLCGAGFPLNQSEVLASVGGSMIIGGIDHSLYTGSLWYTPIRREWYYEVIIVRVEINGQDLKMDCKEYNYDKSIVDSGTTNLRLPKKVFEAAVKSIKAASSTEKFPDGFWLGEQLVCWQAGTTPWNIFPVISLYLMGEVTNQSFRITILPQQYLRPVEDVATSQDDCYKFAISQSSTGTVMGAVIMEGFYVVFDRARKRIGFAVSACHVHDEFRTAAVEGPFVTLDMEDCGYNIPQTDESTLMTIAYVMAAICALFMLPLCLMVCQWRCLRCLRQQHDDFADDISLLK
row,Structure (SMILES),pIC50
1,CC1(c2cccc(OCC(=O)Nc3ccccc3)c2)CCSC(N)=N1 (stereo not shown) [Compound 200],> 4.00
2,Cc1ccc(C(=O)Nc2cccc(C3(C)CCSC(N)=N3)c2)nn1 (stereo not shown) [Compound 618],> 4.00
3,Cc1oc(-c2ccc(Cl)cc2)cc1C(=O)Nc1cc(C2(C)CCSC(N)=N2)ccc1F (stereo not shown) [Compound 397],> 4.00
4,Cc1cccnc1C(=O)Nc1cccc(C2(C)CCSC(N)=N2)c1 (stereo not shown) [Compound 240],> 4.00
5,Cn1c(CNc2cccc(C3(C)CCSC(N)=N3)c2)cc2ccccc21 (stereo not shown) [Compound 78],> 4.00
6,CCn1nc(C)cc1C(=O)Nc1ccc(F)c(C2(C)CCSC(N)=N2)c1 (stereo not shown) [Compound 661],> 4.00
7,CC1(c2cccc(NC(=O)c3cccc(I)c3)c2)CCSC(N)=N1 (stereo not shown) [Compound 691],> 4.00
8,CC1(c2cccc(NC(=O)c3cccc(Br)c3)c2)CCSC(N)=N1 (stereo not shown) [Compound 273],> 4.00
9,CCOc1cc(Cl)cnc1C(=O)Nc1cccc(C2(C)CCSC(N)=N2)c1 (stereo not shown) [Compound 532],> 4.00
10,CC1(c2cccc(Nc3nc4ccccc4[nH]3)c2)CCSC(N)=N1 (stereo not shown) [Compound 681],> 4.00
11,CC1(c2cccc(NC(=O)c3ncc(Cl)cc3N)c2)CCSC(N)=N1 (stereo not shown) [Compound 472],> 4.00
12,CC1(c2ccc(F)c(NC(=O)c3ccc(Cl)nc3)c2)CCSC(N)=N1 (stereo not shown) [Compound 527],> 4.00
13,CC1(c2cccc(/C=N/Oc3ccccc3)c2)CCSC(N)=N1 (stereo not shown) [Compound 383],> 4.00
14,Cc1nocc1C(=O)Nc1cccc(C2(C)CCSC(N)=N2)c1 (stereo not shown) [Compound 307],> 4.00
15,CC1(c2cccc(NC(=O)c3ccc([N+](=O)[O-])cc3)c2)CCSC(N)=N1 (stereo not shown) [Compound 209],> 4.00
16,CC1(c2cccc(NC(=O)Nc3ccc(Cl)cc3)c2)CCSC(N)=N1 (stereo not shown) [Compound 181],> 4.00
17,COc1ccc(C2(C)CCSC(N)=N2)cc1C(=O)Nc1ccc(Cl)cn1 (stereo not shown) [Compound 186],> 4.00
18,CC1(c2cccc(NC(=O)c3ccc(Cl)cc3F)c2)CCSC(N)=N1 (stereo not shown) [Compound 378],> 4.00
19,CC1(c2cccc(NC(=O)c3ccc(OC(F)(F)F)cc3)c2)CCSC(N)=N1 (stereo not shown) [Compound 175],> 4.00

row,Structure (SMILES),pIC50
1,CC1(c2cccc(NCc3ccc4ccccc4c3)c2)CCSC(N)=N1 (stereo not shown) [Compound 443],> 4.00
2,CC1(c2cccc(OCC(=O)Nc3ccc(C(=O)c4ccccc4)cc3)c2)CCSC(N)=N1 (stereo not shown) [Compound 591],> 4.00
3,CC1(c2cccc(NC(=O)CCNC(=O)c3ccc(Cl)cc3)c2)CCSC(N)=N1 (stereo not shown) [Compound 613],> 4.00
4,CC1(c2cccc(NC(=O)CCNC(=O)c3ccc(Cl)cn3)c2)CCSC(N)=N1 (stereo not shown) [Compound 134],> 4.00
5,Cc1cccc(C(=O)Nc2cccc(C3(C)CCSC(N)=N3)c2)n1 (stereo not shown) [Compound 348],> 4.00
6,CC1(c2cccc(NC(=S)Nc3ccc(Br)cc3)c2)CCSC(N)=N1 (stereo not shown) [Compound 43],> 4.00
7,CC(C)Oc1ccc(C(=O)Nc2cccc(C3(C)CCSC(N)=N3)c2)nc1 (stereo not shown) [Compound 299],> 4.00
8,CC1(c2cccc(OCC(=O)Nc3ccc4cnccc4c3)c2)CCSC(N)=N1 (stereo not shown) [Compound 454],> 4.00
9,Cn1nc(C(=O)Nc2cccc(C3(C)CCSC(N)=N3)c2)cc1CO (stereo not shown) [Compound 358],> 4.00
10,CC1(c2cccc(OCC(=O)Nc3ccc4ccccc4n3)c2)CCSC(N)=N1 (stereo not shown) [Compound 390],> 4.00
11,Cc1ccc(C(=O)Nc2cccc(C3(C)CCSC(N)=N3)c2)c(O)c1 (stereo not shown) [Compound 569],> 4.00
12,CC1(c2cccc(CCC(=O)Nc3ccc(Cl)cc3)c2)CCSC(N)=N1 (stereo not shown) [Compound 341],> 4.00
13,CC1(c2cccc(NC(=O)c3c(O)cccc3F)c2)CCSC(N)=N1 (stereo not shown) [Compound 575],> 4.00
14,CC1(c2cccc(C(=O)NCCc3ccc(Cl)cc3)c2)CCSC(N)=N1 (stereo not shown) [Compound 451],> 4.00
15,Cc1ccc(CNc2cccc(C3(C)CCSC(N)=N3)c2)cc1 (stereo not shown) [Compound 259],> 4.00
16,Cc1noc(C)c1C(=O)Nc1cccc(C2(C)CCSC(N)=N2)c1 (stereo not shown) [Compound 491],> 4.00
17,Cc1cc(C(=O)Nc2cccc(C3(C)CCSC(N)=N3)c2)c(C)o1 (stereo not shown) [Compound 578],> 4.00
18,CC1(c2cccc(NC(=O)c3cc(F)c(Cl)cc3F)c2)CCSC(N)=N1 (stereo not shown) [Compound 35],> 4.00
19,CC1(c2cccc(NCc3ccccc3)c2)CCSC(N)=N1 (stereo not shown) [Compound 357],> 4.00

# Further lines, results first:
row,pIC50,Structure (SMILES)
1,> 4.00,CC1(c2cccc(NC(=O)C(=O)Nc3ccc(Cl)cn3)c2)CCSC(N)=N1 (stereo not shown) [Compound 866]
2,> 4.00,CC1(c2cccc(NC(=O)c3cnc(N=[N+]=N)cn3)c2)CCSC(N)=N1 (stereo not shown) [Compound 1266]
3,> 4.00,CC1(c2cccc(NC(=O)c3ccc(C#N)nc3)c2)CCSC(N)=N1 (stereo not shown) [Compound 819]
4,> 4.00,CCc1ccc(C(=O)Nc2cccc(C3(C)CCSC(N)=N3)c2)cc1 (stereo not shown) [Compound 919]
5,> 4.00,CCCCNC(=O)c1ccc(C2(C)CCSC(N)=N2)s1 (stereo not shown) [Compound 803]
6,> 4.00,Cc1ccc(CO/N=C/c2cccc(C3(C)CCSC(N)=N3)c2)cc1 (stereo not shown) [Compound 719]
7,> 4.00,CC1(c2cccc(NC(=O)c3cc(CCCO)on3)c2)CCSC(N)=N1 (stereo not shown) [Compound 788]
8,> 4.00,CC1=NC(C)(c2cccc(CCC(=O)Nc3ccccc3)c2)CCS1 (stereo not shown) [Compound 732]
9,> 4.00,COc1ccc(CC(=O)NCc2cccc(C3(C)CCSC(N)=N3)c2)cc1 (stereo not shown) [Compound 910]
10,> 4.00,CC1(c2cccc(OCCc3ccccc3)c2)CCSC(N)=N1 (stereo not shown) [Compound 833]
11,> 4.00,CC1(c2cccc(OCC(=O)Nc3cccc(Cl)c3)c2)CCSC(N)=N1 (stereo not shown) [Compound 1145]
12,> 4.00,CC1(c2cccc(NC(=O)c3ccc(Cl)nc3Cl)c2)CCSC(N)=N1 (stereo not shown) [Compound 865]
13,> 4.00,Cc1ccc(S(=O)(=O)Nc2cc(Br)cc(C3(C)CCSC(N)=N3)c2)cc1 (stereo not shown) [Compound 1172]
14,> 4.00,CC1(c2cccc(OCC(=O)Nc3ccc(Cl)c4ccccc34)c2)CCSC(N)=N1 (stereo not shown) [Compound 723]
15,> 4.00,CC1(c2cccc(OCCCc3ccncc3)c2)CCSC(N)=N1 (stereo not shown) [Compound 1221]
16,> 4.00,CC1(c2cccc(OCC(=O)Nc3nccs3)c2)CCSC(N)=N1 (stereo not shown) [Compound 824]
17,> 4.00,CCc1cc(NC(=O)c2ccc(C)cc2)cc(C2(C)CCSC(N)=N2)c1 (stereo not shown) [Compound 928]

row,pIC50,Structure (SMILES)
1,> 4.00,CC1(c2cccc(NC(=O)/C=C/c3ccccc3)c2)CCSC(N)=N1 (stereo not shown) [Compound 1258]
2,> 4.00,CC1(c2cccc(NC(=O)c3cnc(N4CCOCC4)cn3)c2)CCSC(N)=N1 (stereo not shown) [Compound 1264]
3,> 4.00,CC1(c2cccc(NC(=O)c3ccc(OC(F)F)cc3)c2)CCSC(N)=N1 (stereo not shown) [Compound 905]
4,> 4.00,CC1(c2cccc(NC(=O)c3cc(Cl)cc(Cl)c3)c2)CCSC(N)=N1 (stereo not shown) [Compound 775]
5,> 4.00,COc1ccc(C(=O)Nc2cccc(C3(C)CCSC(N)=N3)c2)nc1 (stereo not shown) [Compound 781]
6,> 4.00,CC1(c2cccc(OCC(=O)Nc3cccc(Oc4ccccc4)c3)c2)CCSC(N)=N1 (stereo not shown) [Compound 1007]
7,> 4.00,CC1(c2cccc(NC(=O)c3cc(CCO)on3)c2)CCSC(N)=N1 (stereo not shown) [Compound 1165]
8,> 4.00,COCCCc1ccc(C(=O)Nc2cccc(C3(C)CCSC(N)=N3)c2)nc1 (stereo not shown) [Compound 1150]
9,> 4.00,CC1(c2cccc(NC(=O)CCNC(=O)c3ccc(Br)cc3)c2)CCSC(N)=N1 (stereo not shown) [Compound 1255]
10,> 4.00,CC1(c2cccc(NC(=O)c3ncccc3C(=O)c3ccccc3)c2)CCSC(N)=N1 (stereo not shown) [Compound 1013]
11,> 4.00,CC(=O)Nc1ccc(C(=O)Nc2cccc(C3(C)CCSC(N)=N3)c2)nc1 (stereo not shown) [Compound 792]
12,> 4.00,COc1ccc(NC(=O)C(F)(F)Oc2cccc(C3(C)CCSC(N)=N3)c2)cc1 (stereo not shown) [Compound 944]
13,> 4.00,CCCCNC(=O)c1cc(C2(C)CCSC(N)=N2)ccc1F (stereo not shown) [Compound 1074]
14,> 4.00,COCCNc1cnc(C(=O)Nc2cccc(C3(C)CCSC(N)=N3)c2)cn1 (stereo not shown) [Compound 1269]
15,> 4.00,CC1(c2cccc(NC(=O)c3ccc(NCc4ccccn4)cn3)c2)CCSC(N)=N1 (stereo not shown) [Compound 797]
16,> 4.00,CC1(c2cccc(NC(=O)c3cnc(N)cn3)c2)CCSC(N)=N1 (stereo not shown) [Compound 1265]
17,> 4.00,CC1(c2cccc(NC(=O)c3cc(CO)on3)c2)CCSC(N)=N1 (stereo not shown) [Compound 894]

# Same assay, conditions: recombinant human BACE-1 protein, 3 h at 30° C., pH5.0; read-out: IC50 value
row,Structure (SMILES),pIC50
1,CC1(c2cc(Br)cc(NC(=O)c3cccs3)c2)CCSC(N)=N1 (stereo not shown) [Compound 490],5.29
2,Cc1ccc(NC(=O)COc2cccc(C3(C)CCSC(N)=N3)c2)cc1O (stereo not shown) [Compound 639],5.10
3,COCc1cc(NC(=O)c2ccc(Cl)cc2)cc(C2(C)CCSC(N)=N2)c1 (stereo not shown) [Compound 395],5.82
4,COCc1cc(NC(=O)c2ccc(F)cc2)cc(C2(C)CCSC(N)=N2)c1 (stereo not shown) [Compound 896],5.07
5,CC1(c2cc(NC(=O)c3ccco3)cc(C(F)(F)F)c2)CCSC(N)=N1 (stereo not shown) [Compound 163],5.64
6,CC1(c2cc(Br)cc(NC(=O)c3ccccn3)c2)CCSC(N)=N1 (stereo not shown) [Compound 1160],6.14
7,CC1(c2cccc(OCC(=O)Nc3ccc(Cl)cc3)c2)CCSC(N)=N1 (stereo not shown) [Compound 246],5.54
8,C[C@@H](NC(=O)c1ccc(C2(C)CCSC(N)=N2)s1)c1ccccc1 (stereo partly shown) [Compound 52],5.00
9,COCc1cc(NC(=O)c2ccco2)cc(C2(C)CCSC(N)=N2)c1 (stereo not shown) [Compound 176],5.83
10,CC1(c2cccc(C=Cc3ccc(Cl)cn3)c2)CCSC(N)=N1 (stereo not shown) [Compound 616],5.23
